The values that follow come from paper PMC5460604 (Chemical Science, 2016).

Usually Km stands for the substrate concentration at which the rate is half of its maximum.

Like-named read-outs stand apart in the source and are kept apart here.

One experiment relates to ER-BC (Bcoa0725). The conditions noted are these: NADH, anaerobic.
The target of the next experiment is T1, ER-MT (Neomoorella thermoacetica, UniProt O52935).
T1 sequence (O52935 1-667): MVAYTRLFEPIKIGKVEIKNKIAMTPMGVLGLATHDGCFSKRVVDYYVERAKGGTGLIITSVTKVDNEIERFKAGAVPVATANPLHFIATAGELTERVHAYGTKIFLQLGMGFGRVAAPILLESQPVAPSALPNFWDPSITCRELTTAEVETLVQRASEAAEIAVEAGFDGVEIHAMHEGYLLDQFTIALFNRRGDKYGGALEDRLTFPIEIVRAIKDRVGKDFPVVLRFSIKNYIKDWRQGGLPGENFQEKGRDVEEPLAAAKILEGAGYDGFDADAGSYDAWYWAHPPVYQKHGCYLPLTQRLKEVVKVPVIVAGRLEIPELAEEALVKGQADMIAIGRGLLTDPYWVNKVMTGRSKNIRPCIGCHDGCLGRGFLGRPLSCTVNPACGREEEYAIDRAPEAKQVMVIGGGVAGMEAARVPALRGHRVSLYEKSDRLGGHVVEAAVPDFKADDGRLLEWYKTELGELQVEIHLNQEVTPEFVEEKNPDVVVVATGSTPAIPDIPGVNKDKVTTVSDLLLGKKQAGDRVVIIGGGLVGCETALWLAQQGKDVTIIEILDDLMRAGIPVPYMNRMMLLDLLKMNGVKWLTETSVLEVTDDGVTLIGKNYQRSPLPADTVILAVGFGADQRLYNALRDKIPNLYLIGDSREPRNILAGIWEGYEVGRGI
Briefly: whole-cell biotransformation, LC-MS. It counts as cell-based. As to conditions: 0.7 mM substrate; E. coli expressing ER.

Turning to `O=C(O)C=CCCC(=O)O` (mixture of isomers) [compound 5, 2-hexenedioic acid], in the experiment on ER-BC (Bcoa0725) (14% isopropanol, sigmoidal kinetics), the Km is 18.9 mM.

`O=C(O)/C=C/c1ccccc1` [compound 4, trans-cinnamic acid]: the Km in the experiment on ER-BC (Bcoa0725) (substrate inhibition) is 0.68 mM.

On to `O=C(O)/C=C/C=C/C(=O)O` [trans,trans-muconic acid], for which the “whole-cell biotransformation, LC-MS” value on ER-MT was “the ER-BC, ER-CA and ER-MT strains hydrogenated both isomers to adipic acid”.
